Measurements reported in article PMC4488699, “Proteasome as a Molecular Target of Microcystin-LR” (Toxins, 2015).
Like-named read-outs stand apart in the source and are kept apart here. Numbered stars: 1 amine (or outer) side, 2 acyl side, 3 side chain; on linkers, the order of the positions; unused ones are H or OH. Bridge positions count the residues as written; N and C are the ends. Square brackets hold non-standard residues; d marks the D form. Peptide text beside a SMILES is read from it. * marks the point of attachment. Adda = CO[C@@H](Cc1ccccc1)[C@@H](C)/C=C(C)/C=C/[C@H](N[*:1])[C@H](C)C(=O)[*:2]; dAsp(3S-Me) = C[C@H](C(=O)[*:3])[C@@H](N[*:1])C(=O)[*:2]; d(γGlu) = O=C(O)[C@@H](CCC(=O)[*:2])N[*:1]; Cbz = O=C(OCc1ccccc1)*; NMeDha = C=C(NC)C(=O)O

Key:
[1] = system: PC-3-GFP^u cells; assay type: cell-based
[2] = system: proteasome TL activity in PC-3-GFP^u whole cell extracts; assay type: cell-based
[3] = system: proteasome PGPH activity in PC-3-GFP^u whole cell extracts; assay type: cell-based
[4] = system: proteasome CT activity in PC-3-GFP^u whole cell extracts; assay type: cell-based
[5] = system: proteasome TL activity in the liver of Gobiocypris rarus; settings: in vivo
[6] = system: protease; settings: cited from earlier work
[7] = system: serine/threonine protein phosphatases (PPs); settings: cited from earlier work
[8] = system: animal cells; settings: cited from earlier work

SMILES	GFP degradation / accumulation of ubiquitinated GFP [1]	inhibition of cellular proteasome TL activity [2]	effect on cellular proteasome PGPH activity [3]	effect on cellular proteasome CT activity [4]	dose dependence of inhibition of proteasome TL activity in the liver [5]	inhibition rate of proteasome TL activity in the liver ([5]; pH 7.4)	degradation by protease [6]	inhibition of serine/threonine protein phosphatases [7]	induction of oxidative stress [8]	GFP degradation / accumulation of ubiquitinated GFP ([1]; MG-132 1 μM (positive control), 24 h, vs DMSO, fluorescence microscopy)
C=C1C(=O)N[C@H](C)C(=O)N[C@@H](CC(C)C)C(=O)N[C@@H](C(=O)O)[C@H](C)C(=O)N[C@@H](CCCNC(=N)N)C(=O)N[C@@H](/C=C/C(C)=C/[C@H](C)[C@H](Cc2ccccc2)OC)[C@H](C)C(=O)N[C@@H](C(=O)O)CCC(=O)N1C [MC-LR, microcystin-LR] (R[Adda][d(γGlu)][NMeDha][dA]L[dAsp(3S-Me)]-OH; lactam N-7)	Ubiquitinated GFP also accumulated	34%	slightly inhibited	did not evidently change	dose-dependently inhibited	43%	cannot be degraded by protease	inhibition to serine/threonine protein phosphatases	induce oxidative stress in animal cells	
CC(C)C[C@@H](C=O)NC(=O)[C@H](CC(C)C)NC(=O)[C@H](CC(C)C)NC(=O)OCc1ccccc1 [MG-132] (Cbz-Leu-Leu-Leu-aldehyde)										GFP degradation was retarded and ubiquitinated GFP accumulated
